5 compounds from US20040137454A1, “Assay for drug-induced recoding” (priority 2004, published 2004) can be followed below.

For assay [1], the system named is antizyme 1 polyamine-regulated frameshifting sequence. Description: Dual luciferase reporter assay of antizyme 1 +1 frameshifting (p2Lucaz1) in transfected cells. To be noted: for Effect on amount of frameshifting, p2Lucaz1: cultured mammalian cells, controls 2.5 mM DFMO; for Maximal frameshifting stimulation: HEK293, standard growth conditions without DFMO, 0.01-0.1 mM spermine, 0.1-2 mM spermidine, 0.5-2 mM putrescine; for Fold increase of antizyme 1 frameshifting upon polyamine addition to DFMO pre-treated cells: HEK293 pre-treated with DFMO, 0.1 mM spermine, 2 mM spermidine, 2 mM putrescine. Format: cell-based, human. The source says:
Referring now to FIG. 2, the construction of illustrative embodiments of the dual reporter assay constructs is depicted. These illustrative embodiments use the renilla and firefly luciferases as first and second reporters, respectively. […] Pat. […] The shift site (TCCT), corresponding to UCCU in the corresponding mRNA, is present at nucleotides 55-58 of each of these sequences. […] Zero frame (“0 frame”) controls for each construct were identical except that the first T of the stop codon following the shift site was deleted. It will be appreciated that the DNA constructs disclosed herein are merely examples of dual reporter constructs comprising two reporter-encoding DNA segments separated by a cloning site containing a polyamine-regulated frameshifting sequence, and that all such constructs are included within the scope of the present invention. Cultured mammalian cells are transfected with the dual construct according to method well known in the art. Parallel cell lines are transfected with the +1 reading frame and 0 reading frame construct according to methods well known in the art. The cells are then incubated under varying conditions to test the effect of such conditions on the polyamine regulation. Cells are then lysed and the luciferase activity measured by light emission after injection of luminescence substrate, as is well known in the art. […] This provides a quantitative assay for measuring the polyamine-induced recoding. […] Similarly, mouse germ line (GC-2) cells were obtained from the American Tissue Type culture Collection (Manassas, Va.). […] All cells were incubated at 37° C. in an atmosphere of 5% CO2 All media and antibiotics were obtained from Invitrogen Life Technologies (Carlsbad, Calif.), and all sera were obtained from HyClone Inc. (Logan Utah). The cells were transfected with the dual luciferase constructs p2Lucaz1 and p2Lucaz2 using LIPOFECTIN reagent (Invitrogen Life Technologies). LIPOFECTIN reagent is a 1:1 (w/w) liposome formulation of the cationic lipid […],-trimethylammonium chloride (DOTMA), and dioleoyl phosphotidylethanolamine (DOPE) in membrane filtered water. Cells (0.3×10^5) were plated in 48-well, treated tissue culture plates and grown for 48 hours as described above. DFMO (2.5 mM) was added to half the plates of each cell line to inhibit polyamine synthesis. […] Cells were lysed using passive lysis buffer and luciferase activity was determined using the Dual Luciferase reporter assay (Promega, Madison, Wis.) as described in Grentzmann, supra. For all reactions, light emission was measure between 2 and 12 seconds after 100 μl of luminescence substrate was injected.
(A reporter such as luciferase makes a cellular process visible.)

In assay [2] the test system is antizyme 3 frameshifting sequence. Description: Dual luciferase reporter assay with p2Luc containing the antizyme 3 frameshifting sequence. Format: cell-based. To be noted: cultured mammalian cells, controls 2.5 mM DFMO.
Assay [3] relates to antizyme 2 polyamine-regulated frameshifting sequence. Description: Dual luciferase reporter assay of antizyme 2 +1 frameshifting (p2Lucaz2) in transfected cells. In kind it is cell-based, human. Particulars: for Effect on amount of frameshifting, p2Lucaz2: cultured mammalian cells, controls 2.5 mM DFMO. The source says:
Referring now to FIG. 2, the construction of illustrative embodiments of the dual reporter assay constructs is depicted. These illustrative embodiments use the renilla and firefly luciferases as first and second reporters, respectively. The sequences referred to herein as SEQ ID NO:1 and SEQ ID NO:2, which comprise antizyme 1 and 2 polyamine-regulated frameshifting sequences, respectively, were cloned into the SalI and BamHI sites of the p2Luc vector (U.S. Pat. No. 6,143,502) to produce plasmids p2Lucaz1 and p2Lucaz2. The shift site (TCCT), corresponding to UCCU in the corresponding mRNA, is present at nucleotides 55-58 of each of these sequences. Constructs were also prepared with deletions of the upstream stimulatory sequences of the antizyme 1 polyamine-regulated frameshifting sequence (SEQ ID NO:3) and the antizyme 2 polyamine-regulated frameshifting sequence (SEQ ID NO:4), resulting in plasmids p2Lucaz1usdel and p2Lucaz2usdel. Other constructs were prepared with deletions of the downstream pseudoknot stimulatory sequences of the antizyme 1 polyamine-regulated frameshifting sequence (SEQ ID NO:5) and the antizyme 2 polyamine-regulated frameshifting sequence (SEQ ID NO:6), resulting in plasmids p2Lucaz1pkdel and p2Lucaz2pkdel. Zero frame (“0 frame”) controls for each construct were identical except that the first T of the stop codon following the shift site was deleted. […]
Cultured mammalian cells are transfected with the dual construct according to method well known in the art. Parallel cell lines are transfected with the +1 reading frame and 0 reading frame construct according to methods well known in the art. […] Cells are then lysed and the luciferase activity measured by light emission after injection of luminescence substrate, as is well known in the art. […] This provides a quantitative assay for measuring the polyamine-induced recoding. […]

In a further assay the test system is HEK293 cells. Description: Intracellular polyamine levels by HPLC analysis of whole cell lysates. Format: cell-based, human. The protocol: Polyamine levels were also measured for comparison. Intracellular polyamine levels were determined by HPLC analysis of whole cell lysates. Cells (3×10^5) were grown in 6-well plates for 48 hours at 37° C. in an atmosphere of 5% CO2, either in the presence or absence of DFMO. Cells were then mock transfected as described above. […] Cells were allowed to grow for 12 hours, and 5×10^6 cells were harvested and washed three times with phosphate buffered saline.

The test system of another assay is endogenous antizyme. Description: Endogenous antizyme levels measured as ODC-inhibitory activity in HEK293 cell extracts. Particulars: HEK293 cells, 24 hours; for Antizyme: 1 mM aminoguanidine. Format: cell-based, human. As to the method:
The endogenous antizyme levels were also measured for comparison. HEK293 cells were plated in 10 cm dishes with 10 ml of the growth media as described above at a concentration of 3×10^5 cells/ml and incubated for 24 hours. The medium was replaced with fresh medium supplemented with 1 mM aminoguanidine and various concentrations of either putrescine, spermidine, or spermine. The dishes were incubated further for 24 hours, placed on ice, washed with phosphate buffered saline twice, drained completely, and cells were disrupted by 3 freeze/thaw cycles. Then 0.5 ml of cell extract buffer (25 mM Tris-HCl, pH 7.2, 1 mM dithiothreitol, 1 mM EDTA, and 0.01% Tween 80) was added, and the cell suspension was centrifuged at 15,000 rpm for 30 minutes at 4° C. Antizyme activities were measured as ODC-inhibitory activities that could be reversed by excess antizyme inhibitor. Cell extracts (40 μl) were mixed with 2.0 units of mouse kidney ODC in duplicate. To one set, 0.1 μg of GST-antizyme inhibitor protein was added. ODC activity of each mixture was assayed by measuring the release of ^14CO2 from L-[1-^14C] ornithine (as described in I. P. Ivanov et al., Discovery of a Spermatogenesis Stage-specific Ornithine Decarboxylase Antizyme: Antizyme 3, 97 Proc. Nat'l Acad. Sci. USA 97, 4808-4813 (2000); I. P. Ivanov et al., Conservation of Polyamine Regulation by Translational Frameshifting from Yeast to Mammals, 19 EMBO J. 1907-1917 (2000); S. Matsufuji et al., Reading Two Bases Twice: Mammalian Antizyme Frameshifting in Yeast, 15 EMBO J. 1360-1370 (19%)), and expressed as specific activities. Protein concentrations of the extracts were determined with the BCA protein assay kit (Pierce) using bovine serum albumin as a standard. One unit of ODC and antizyme was defined as the activity releasing […] CO2 per hour and the activity inhibiting 1 unit of ODC, respectively.

For assay [4], the system named is antizyme 1 and 2 frameshifting sequences with upstream stimulatory sequences deleted. Description: Dual luciferase frameshifting assay, upstream deletion constructs p2Lucaz1usdel and p2Lucaz2usdel. In kind it is cell-based, human. To be noted: 1 mM spermidine added to DFMO (2.5 mM) treated HEK293 cells. The source says:
(§1) Referring now to FIG. 2, the construction of illustrative embodiments of the dual reporter assay constructs is depicted. These illustrative embodiments use the renilla and firefly luciferases as first and second reporters, respectively. The sequences referred to herein as SEQ ID NO:1 and SEQ ID NO:2, which comprise antizyme 1 and 2 polyamine-regulated frameshifting sequences, respectively, were cloned into the SalI and BamHI sites of the p2Luc vector (U.S. Pat. No. 6,143,502) to produce plasmids p2Lucaz1 and p2Lucaz2. The shift site (TCCT), corresponding to UCCU in the corresponding mRNA, is present at nucleotides 55-58 of each of these sequences. […]
(§2) To determine the effectiveness of the role of sequences flanking the frameshift site in inducing frameshifting levels, dual luciferase constructs were made in which antizyme sequences preceding and following the antizyme 1 and 2 frameshift sites were deleted. […] As described above, these constructs were then transiently transfected into HEK293 cells grown in standard growth nedia or media with 2.5 mM DFMO, and frameshift levels were measured following the addition of exogenously added spermidine (1 mM).

In assay [5] the test system is antizyme 1 and 2 frameshifting sequences with downstream pseudoknot deleted. Description: Dual luciferase frameshifting assay, downstream pseudoknot deletion constructs p2Lucaz1pkdel and p2Lucaz2pkdel. Format: cell-based, human. To be noted: 1 mM spermidine added to DFMO (2.5 mM) treated HEK293 cells.
Description: as §1, §2

`NCCCCCN` [cadaverine]: the “Effect on amount of frameshifting, p2Lucaz1” value in assay [1] (0-32 mM cadaverine, FIG. 7B) was “effective for significantly increasing the amount of frameshifting observed”. Further, in assay [2] (0-32 mM cadaverine, FIG. 7B), the “Effect on amount of frameshifting, antizyme 3 frameshifting sequence” value is given as “no increase in frameshifting was observed”. Further, the “Effect on amount of frameshifting, p2Lucaz2” value in assay [3] (0-32 mM cadaverine, FIG. 7B) is listed as “effective for significantly increasing the amount of frameshifting observed”.
As to `NCCCCNCCCN` [Spermidine, spermidine], the “Increase of intracellular spermidine levels over control cells” value with HEK293 cells (1 mM spermidine added to DFMO treated HEK293 cells) is 1.5 fold. The “Effect on intracellular putrescine and spermine levels” value in the assay with HEK293 cells (1 mM spermidine added to DFMO treated or untreated HEK293 cells) is “restored putrescine and spermine levels to nearly that of control cells”. In addition, in the assay with HEK293 cells (1 mM spermidine added to untreated (no DFMO) HEK293 cells), the “Increase of intracellular spermidine levels over control cells” value is 1.7 fold. Also, in the assay on endogenous antizyme (1 mM exogenous polyamine), the “Fold Increase (antizyme vs control)” value was determined as 1.1 and the Antizyme was determined as 23 ± 0.2 units/mg. In the assay on endogenous antizyme (2 mM exogenous polyamine), the “Fold Increase (antizyme vs control)” value turned out to be 1.6 and the Antizyme came to 3.4 units/mg. Further, the “Stimulation of frameshifting, upstream deletion constructs” value in assay [4] is on record as 5-6 fold. In addition, in assay [1], the Maximal frameshifting stimulation entry is on record as “approximately 40%” and the “Fold increase of antizyme 1 frameshifting upon polyamine addition to DFMO pre-treated cells” value is recorded as about 10 fold. Moreover, the “Stimulation of frameshifting, downstream (pseudoknot) deletion constructs” value in assay [5] is on record as “approximately 2 fold”. Besides, in assay [3] (HEK293, with or without DFMO, FIG. 4), the “Antizyme 2 frameshifting response compared with antizyme 1” value was “showed a very similar response to polyamine depletion and addition”.
For the compound `N=C(N)NCCCCN` [agmatine], the “Effect on amount of frameshifting, p2Lucaz1” value in assay [1] (0-16 mM agmatine, FIG. 7A) was “significantly increased the amount of frameshifting observed”. Besides, in assay [2] (0-16 mM agmatine, FIG. 7A), the “Effect on amount of frameshifting, antizyme 3 frameshifting sequence” value is reported as “no increase in frameshifting was observed”. Moreover, the “Effect on amount of frameshifting, p2Lucaz2” value in assay [3] (0-16 mM agmatine, FIG. 7A) was “significantly increased the amount of frameshifting observed”.
As for `NCCCNCCCCNCCCN` [Spermine, spermine], in the assay with endogenous antizyme (0.4 mM exogenous polyamine), the “Fold Increase (antizyme vs control)” value amounted to 1.2 and the Antizyme was 2.6 ± 0.5 units/mg. Further, in the assay with endogenous antizyme (0.8 mM exogenous polyamine), the “Fold Increase (antizyme vs control)” value worked out at 1.4 and the Antizyme is listed as 3.0 ± 0.6 units/mg. In addition, in assay [1], the Maximal frameshifting stimulation entry was “approximately 40%” and the “Fold increase of antizyme 1 frameshifting upon polyamine addition to DFMO pre-treated cells” value was about 10 fold.
Consider `NCCCCN` [Putrescine, putrescine], for which, in the assay on endogenous antizyme (2 mM exogenous polyamine), the “Fold Increase (antizyme vs control)” value was 1.5 and the Antizyme came to 3.0 ± 0.7 units/mg. In assay [1], the Maximal frameshifting stimulation entry is given as “approximately 40%” and the “Fold increase of antizyme 1 frameshifting upon polyamine addition to DFMO pre-treated cells” value was about 10 fold.
